Test results reported in patent US20100267697A1, “ION CHANNEL MODULATORS” (Wyeth, priority 2006, published 2010).
Structures can show the parent of a compound that is named as a salt. Where two headings read alike, the source gives them in different places.

Assays:
Format in all cases: cell-based
Cav2.2 [1] = target: T1, Cav2.2 (Homo sapiens, UniProt Q00975); assay: HEK assay (whole-cell patch clamp, transiently transfected HEK-293T/17 cells, pulses P1 and P5); conditions: holding potential −100 mV
T1 construct: expressed in transfected cells; host or cells: HEK-293T/17 (transient, FuGENE 6)
T1 sequence (Q00975 whole entry): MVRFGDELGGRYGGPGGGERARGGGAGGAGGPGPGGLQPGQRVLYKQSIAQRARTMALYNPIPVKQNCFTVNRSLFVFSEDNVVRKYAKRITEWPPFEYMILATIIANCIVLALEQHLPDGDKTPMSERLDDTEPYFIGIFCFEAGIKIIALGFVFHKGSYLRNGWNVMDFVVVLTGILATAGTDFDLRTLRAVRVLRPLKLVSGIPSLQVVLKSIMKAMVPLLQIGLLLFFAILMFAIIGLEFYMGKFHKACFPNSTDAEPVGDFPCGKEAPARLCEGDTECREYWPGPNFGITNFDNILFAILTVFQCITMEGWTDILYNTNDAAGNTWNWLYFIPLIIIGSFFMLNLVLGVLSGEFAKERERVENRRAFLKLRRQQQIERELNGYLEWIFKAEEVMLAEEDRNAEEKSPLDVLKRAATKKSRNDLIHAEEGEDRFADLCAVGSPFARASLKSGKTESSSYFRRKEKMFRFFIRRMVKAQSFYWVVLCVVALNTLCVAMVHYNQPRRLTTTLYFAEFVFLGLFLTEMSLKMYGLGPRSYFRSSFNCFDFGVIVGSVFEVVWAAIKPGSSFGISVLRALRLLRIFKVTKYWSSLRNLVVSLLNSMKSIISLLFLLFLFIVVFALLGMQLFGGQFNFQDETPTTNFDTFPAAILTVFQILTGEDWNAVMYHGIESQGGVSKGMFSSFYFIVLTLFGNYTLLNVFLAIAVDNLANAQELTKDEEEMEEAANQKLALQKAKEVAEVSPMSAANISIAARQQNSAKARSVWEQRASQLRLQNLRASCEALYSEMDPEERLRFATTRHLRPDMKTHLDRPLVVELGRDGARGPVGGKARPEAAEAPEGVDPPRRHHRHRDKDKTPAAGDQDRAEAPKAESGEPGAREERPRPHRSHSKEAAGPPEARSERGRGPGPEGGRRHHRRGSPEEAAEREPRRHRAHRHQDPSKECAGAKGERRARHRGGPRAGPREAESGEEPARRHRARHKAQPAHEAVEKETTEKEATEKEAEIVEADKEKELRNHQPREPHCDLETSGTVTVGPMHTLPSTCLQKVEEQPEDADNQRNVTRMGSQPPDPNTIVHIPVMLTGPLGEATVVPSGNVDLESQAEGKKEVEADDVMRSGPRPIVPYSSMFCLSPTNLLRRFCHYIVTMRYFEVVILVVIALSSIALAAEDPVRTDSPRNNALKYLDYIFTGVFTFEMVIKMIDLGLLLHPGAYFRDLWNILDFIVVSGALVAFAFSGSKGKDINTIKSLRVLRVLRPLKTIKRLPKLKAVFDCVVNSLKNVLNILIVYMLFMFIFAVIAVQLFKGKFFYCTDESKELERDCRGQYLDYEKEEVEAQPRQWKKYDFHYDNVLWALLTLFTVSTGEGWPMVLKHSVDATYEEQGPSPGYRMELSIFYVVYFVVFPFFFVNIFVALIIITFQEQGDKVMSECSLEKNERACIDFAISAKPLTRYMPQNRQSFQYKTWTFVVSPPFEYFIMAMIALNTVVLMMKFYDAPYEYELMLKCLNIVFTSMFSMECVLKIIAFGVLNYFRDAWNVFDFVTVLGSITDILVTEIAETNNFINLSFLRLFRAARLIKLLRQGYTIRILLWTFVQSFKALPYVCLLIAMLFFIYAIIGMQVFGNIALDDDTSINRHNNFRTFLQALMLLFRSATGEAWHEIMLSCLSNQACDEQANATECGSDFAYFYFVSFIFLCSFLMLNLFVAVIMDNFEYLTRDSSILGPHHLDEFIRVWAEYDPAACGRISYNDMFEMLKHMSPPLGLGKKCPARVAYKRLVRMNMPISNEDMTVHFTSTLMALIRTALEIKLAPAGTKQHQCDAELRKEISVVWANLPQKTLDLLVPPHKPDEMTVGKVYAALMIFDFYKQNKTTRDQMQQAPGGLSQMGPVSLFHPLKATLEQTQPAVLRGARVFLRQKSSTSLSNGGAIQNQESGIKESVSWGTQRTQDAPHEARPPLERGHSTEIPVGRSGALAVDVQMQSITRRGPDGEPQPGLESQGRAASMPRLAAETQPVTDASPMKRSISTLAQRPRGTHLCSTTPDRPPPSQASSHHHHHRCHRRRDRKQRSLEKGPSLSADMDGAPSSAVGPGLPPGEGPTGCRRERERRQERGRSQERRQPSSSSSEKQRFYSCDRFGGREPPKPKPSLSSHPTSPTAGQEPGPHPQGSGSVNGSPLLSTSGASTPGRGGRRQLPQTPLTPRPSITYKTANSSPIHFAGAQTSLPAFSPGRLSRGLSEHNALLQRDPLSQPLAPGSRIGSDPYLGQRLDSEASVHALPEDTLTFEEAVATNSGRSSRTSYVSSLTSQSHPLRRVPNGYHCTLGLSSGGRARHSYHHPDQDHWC
T1 sequence (P54284 whole entry partner): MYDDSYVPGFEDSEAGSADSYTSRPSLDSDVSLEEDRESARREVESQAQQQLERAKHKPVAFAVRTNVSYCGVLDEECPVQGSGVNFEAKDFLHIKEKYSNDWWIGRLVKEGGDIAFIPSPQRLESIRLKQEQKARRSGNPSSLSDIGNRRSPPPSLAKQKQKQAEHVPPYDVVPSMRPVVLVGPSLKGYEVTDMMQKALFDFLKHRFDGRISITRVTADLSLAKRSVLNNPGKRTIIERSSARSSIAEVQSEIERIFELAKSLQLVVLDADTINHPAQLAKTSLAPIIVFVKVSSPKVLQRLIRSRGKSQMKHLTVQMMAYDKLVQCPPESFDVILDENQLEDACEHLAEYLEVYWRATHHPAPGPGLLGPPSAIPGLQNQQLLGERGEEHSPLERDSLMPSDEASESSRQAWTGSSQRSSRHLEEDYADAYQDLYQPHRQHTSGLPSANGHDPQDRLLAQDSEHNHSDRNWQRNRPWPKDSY
T1 sequence (P54289 25-946 partner limits assumed): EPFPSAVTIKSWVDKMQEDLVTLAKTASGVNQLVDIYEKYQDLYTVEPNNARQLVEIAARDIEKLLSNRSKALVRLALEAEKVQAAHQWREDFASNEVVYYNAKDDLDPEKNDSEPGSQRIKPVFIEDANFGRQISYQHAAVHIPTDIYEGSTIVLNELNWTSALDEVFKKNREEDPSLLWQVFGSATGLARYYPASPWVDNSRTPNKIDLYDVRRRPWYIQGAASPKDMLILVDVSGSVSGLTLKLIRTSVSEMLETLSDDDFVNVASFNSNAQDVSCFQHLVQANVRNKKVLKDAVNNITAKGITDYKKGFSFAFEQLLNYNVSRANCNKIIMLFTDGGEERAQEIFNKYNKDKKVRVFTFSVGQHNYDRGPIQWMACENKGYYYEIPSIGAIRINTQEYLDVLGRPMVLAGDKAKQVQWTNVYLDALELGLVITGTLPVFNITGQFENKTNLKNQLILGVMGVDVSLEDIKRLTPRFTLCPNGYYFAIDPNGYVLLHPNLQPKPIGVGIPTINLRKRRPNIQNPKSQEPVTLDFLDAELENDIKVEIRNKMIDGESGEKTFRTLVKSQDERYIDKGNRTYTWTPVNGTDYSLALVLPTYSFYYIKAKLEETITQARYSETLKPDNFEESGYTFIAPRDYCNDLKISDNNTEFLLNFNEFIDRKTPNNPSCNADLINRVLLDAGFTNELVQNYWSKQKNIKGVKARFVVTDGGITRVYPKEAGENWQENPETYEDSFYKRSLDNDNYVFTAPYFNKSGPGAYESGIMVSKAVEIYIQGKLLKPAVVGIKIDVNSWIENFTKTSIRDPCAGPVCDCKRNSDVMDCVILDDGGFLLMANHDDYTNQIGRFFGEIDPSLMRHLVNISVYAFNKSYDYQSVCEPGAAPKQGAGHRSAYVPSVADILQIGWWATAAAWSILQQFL
T1 sequence (P54289 947-1103 partner limits assumed): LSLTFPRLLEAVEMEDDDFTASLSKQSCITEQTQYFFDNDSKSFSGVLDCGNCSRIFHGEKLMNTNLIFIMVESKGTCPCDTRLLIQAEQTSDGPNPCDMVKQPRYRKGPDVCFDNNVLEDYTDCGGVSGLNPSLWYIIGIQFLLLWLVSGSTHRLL
Summary of the method: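 Whole-cell voltage clamp of HEK-293T/17 cells transiently transfected via FuGENE 6, then grown 24 h in 1% serum before recording. From −100 mV holding, trains of five 20–30 ms steps to about +10 mV at 5 Hz, repeated every 30 s; steady-state IC50s taken at first (P1) and fifth (P5) pulses to gauge use-dependent block.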

Cav2.2 [2] = target: Cav2.2 (UniProt Q02294); assay: Oocyte assay (Xenopus oocyte heterologous expression, current at fifth pulse P5); conditions: Xenopus oocytes; fifth pulse (P5) of 5 Hz train, holding potential −100 mV
Method: The assay was performed on various calcium channels (e.g., Cav2.2 subfamily) whereby the modulation of the calcium channel was measured for each tested compound.

[3] = target: T2, human Cav2.2 (composed of the subunits α1, β3 and α2δ) (Homo sapiens, UniProt Q00975); assay: FLIPR assay (TSA201 cells stably transfected with human Cav2.2 and human Kir2.3, FLUO-4 Ca2+ signal, KCl depolarization); conditions: 70 mM KCl depolarization, average value
T2 construct: expressed in transfected cells
T2 sequence (Q00975 whole entry): as the sequence (Q00975 whole entry) above
T2 sequence (P54284 whole entry partner): as the sequence (P54284 whole entry partner) above
T2 sequence (P54289 25-946 partner limits assumed): as the sequence (P54289 25-946 partner limits assumed) above
T2 sequence (P54289 947-1103 partner limits assumed): as the sequence (P54289 947-1103 partner limits assumed) above
Summary of the method: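 TSA201 cells co-expressing Cav2.2 (α1, β3, α2δ) and Kir2.3 were loaded with FLUO-4 for 1 h at room temperature. Compound in HBSS with 1% DMSO was preincubated 15 min, then cells were depolarized with 70 mM final KCl (with CaCl2 and HEPES) and the Ca2+ fluorescence was read on FLIPR.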

[4] = fifth pulse (P5) of 5 Hz train, read-out: HEK Cav2.2 P5 IC50
[5] = first pulse (P1) of 5 Hz train, read-out: HEK Cav2.2 P1 IC50

| SMILES | IC50 (Cav2.2 [1]; [4]) [µM] | IC50 (Cav2.2 [1]; [5]) [µM] | IC50 (Cav2.2 [2]) [µM] | IC50 [3] [µM] |
| --- | --- | --- | --- | --- |
| CC(C)(C)C(=O)N(Cc1csc(N2CCCCC2)n1)c1ccc(F)cc1 [Compound 2, N-(4-fluorophenyl)-2,2-dimethyl-N-(2-piperidin-1-yl-thiazol-4-ylmethyl)-propionamide hydrochloride] | 2 | 16.8 | 16.9 |  |
| CCN(CC)c1ccc(CN(C(=O)C(C)(C)C)c2ccc(F)cc2)cn1 [Compound 3, N-(6-diethylamino-pyridin-3-ylmethyl)-N-(4-fluorophenyl)-2,2-dimethyl-propionamide trifluoroacetate] | 1.3 | 4.3 | 12.1 |  |
| CCN(c1ccc(CN(C(=O)C(C)(C)C)c2ccc(F)cc2)cn1)C1CC1 [Compound 7, N-(6-(Cyclopropyl(ethyl)amino)-pyridin-3-ylmethyl)-N-(4-fluorophenyl)-2,2-dimethyl-propionamide] | 1.7 | 12.9 | 8 |  |
| CC(C)(C)C(=O)N(Cc1cnc(N2CCCCC2)nc1)c1ccc(F)cc1 [Compound 8, N-(4-fluorophenyl)-2,2-dimethyl-N-(2-piperidin-1-yl-pyrimidin-5-ylmethyl)-propionamide hydrochloride] | 1.6 | 5.1 | 8.7 |  |
| CN1CCN(c2ccc(CN(C(=O)NC(C)(C)C)c3ccc(F)cc3)cn2)CC1 [Compound 11, 3-tert-butyl-1-(4-fluorophenyl)-1-(6-(4-methyl-piperazin-1-yl)-pyridin-3-ylmethyl)-urea hydrochloride] |  |  | 44 |  |
| CN1CCN(c2ccc(CN(C(=O)C3CCCO3)c3ccc(F)cc3)cn2)CC1 (stereo not shown) [Compound 16, TETRAHYDRO-FURAN-2-CARBOXYLIC ACID (4-FLUOROPHENYL)-(6-(4-METHYL-PIPERAZIN-1-YL)-PYRIDIN-3-YLMETHYL)-AMIDE TRIFLUOROACETATE] |  |  | 86 |  |
| CN1CCN(c2ccc(CN(C(=O)C(C)(C)C)c3ccc(F)cc3)cn2)CC1 [Compound 17, N-(4-Fluorophenyl)-N-[6-(4-methyl-piperazin-1-yl)-pyridin-3-ylmethyl)-2,2-dimethyl-propionamide] |  |  | 41.9 |  |
| CN(CCc1ccccn1)c1ccc(CN(C(=O)C(C)(C)C)c2ccc(F)cc2)cn1 [Compound 18, N-(4-Fluorophenyl)-2,2-dimethyl-N-{6-[methyl-(2-pyridin-2-yl-ethyl)-amino]-pyridin-3-ylmethyl}-propionamide] | 1.7 | 4 | 7.1 |  |
| CN(CCN1CCOCC1)c1ccc(CN(C(=O)C(C)(C)C)c2ccc(F)cc2)cn1 [Compound 20, N-(4-Fluorophenyl)-2,2-dimethyl-N-{6-[methyl-(2-morpholin-4-yl-ethyl)-amino]-pyridin-3-ylmethyl}-propionamide] | 5.2 | 22.2 | 35.5 |  |
| Cc1cc(F)ccc1N(Cc1ccc(N2CCN(C)CC2)nc1)C(=O)C(C)(C)C [Compound 21, N-(4-Fluoro-2-methyl-phenyl)-2,2-dimethyl-N-[6-(4-methyl-piperazin-1-yl)-pyridin-3-ylmethyl]-propionamide] | 2.7 | 10.5 | 18 |  |
| CN1CCCN(c2ccc(CN(C(=O)C(C)(C)C)c3ccc(F)cc3)cn2)CC1 [Compound 22, N-(4-Fluorophenyl)-2,2-dimethyl-N-[6-(4-methyl-[1,4]diazepan-1-yl)-pyridin-3-ylmethyl]-propionamide] | 5.7 | 27.8 | 18.3 |  |
| CCC(C)(C)C(=O)N(Cc1ccc(N(C)CCc2ccccn2)nc1)c1ccc(F)cc1 [Compound 24, N-(4-Fluorophenyl)-2,2-dimethyl-N-{6-[methyl-(2-pyridin-2-yl-ethyl)-amino]-pyridin-3-ylmethyl}-butyramide] | 0.6 | 2.9 | 3.8 |  |
| O=C(C1CCCO1)N(Cc1ccc(Cl)nc1)c1ccc(F)cc1 (stereo not shown) [Compound 252, N-[(6-chloropyridin-3-yl)methyl]-N-(4-fluuorophenyl)tetrahydrofuran-2-carboxamide] |  |  |  | 13.4 |

More lines, now with the values ahead:

| IC50 (Cav2.2 [1]; [4]) [µM] | IC50 (Cav2.2 [1]; [5]) [µM] | IC50 (Cav2.2 [2]) [µM] | IC50 [3] [µM] | SMILES |
| --- | --- | --- | --- | --- |
| 0.3 | 2.4 | 4.2 |  | CC(C)(C)C(=O)N(Cc1ccc(N2CCN(c3ccccn3)CC2)nc1)c1ccc(F)cc1 [Compound 25, N-(4-Fluorophenyl)-2,2-dimethyl-N-[6-(4-pyridin-2-yl-piperazin-1-yl)-pyridin-3-ylmethyl]-propionamide] |
| 0.4 | 1.7 | 12.2 |  | CCC(C)(C)C(=O)N(Cc1ccc(N2CCN(c3ccccn3)CC2)nc1)c1ccc(F)cc1 [Compound 26, N-(4-Fluorophenyl)-2,2-dimethyl-N-[6-(4-pyridin-2-yl-piperazin-1-yl)-pyridin-3-ylmethyl]-butyamide] |
|  |  | 129 |  | CN1CCN(c2ccc(CN(C(=O)C3CC3)c3ccc(F)cc3)cn2)CC1 [Compound 103, Cyclopropanecarboxylic acid (4-fluorophenyl)-[6-(4-methyl-piperaizn-1-yl)-pyridin-3-ylmethyl]-amide] |
|  |  | 37 |  | CCN(CC)c1ccc(CN(C(=O)C2CCOC2)c2ccc(F)cc2)cn1 (stereo not shown) [Compound 112, Tetrahydro-furan-3-carboxylic acid (6-diethylamino-pyridin-3-ylmethyl)-(4-fluorophenyl)-amide] |
|  |  | 30 |  | CCN(CC)c1ccc(CN(C(=O)C2CCOCC2)c2ccc(F)cc2)cn1 [Compound 113, Tetrahydro-pyran-4-carboxylic acid (6-diethylamino-pyridin-3-ylmethyl)-(4-fluorophenyl)-amide] |
|  |  |  | 5 | CC(C)(C)C(=O)N(Cc1csc(-c2ccc(F)cc2)n1)c1ccc(F)cc1 [Compound 247, N-(4-fluorophenyl)-N-{[2-(4-fluorophenyl)-1,3-thiazol-4-yl]methyl}-2,2-dimethylpropanamide] |
|  |  |  | 5.3 | CC(C)(C)C(=O)N(Cc1csc(-c2cccc(F)c2)n1)c1ccc(F)cc1 [Compound 248, N-(4-fluorophenyl)-N-{[2-(3-fluorophenyl)-1,3-thiazol-4-yl]methyl}-2,2-dimethylpropanamide] |
|  |  |  | 7.9 | CC(C)(C)C(=O)N(Cc1csc(-c2ccccc2F)n1)c1ccc(F)cc1 [Compound 249, N-(4-fluorophenyl)-N-{[2-(2-fluorophenyl)-1,3-thiazol-4-yl]methyl}-2,2-dimethylpropanamide] |
|  |  |  | 34.4 | CN1CCN(c2ccc(CN(C(=O)C3CCCO3)c3ccc(F)cc3)cn2)CC1 (stereo not shown) [Compound 250, N-(4-fluorophenyl)-N-{[6-(4-methylpiperazin-1-yl)pyridin-3-yl]methyl}tetrahydrofuran-2-carboxamide] |
|  |  |  | 2.9 | CC(C)(C)OC(=O)N1CC[C@H](C(=O)N(Cc2ccc(Cl)nc2)c2ccc(F)cc2)C1 [Compound 254, TERT-BUTYL (3S)-3-{[(6-CHLOROPYRIDIN-3-YL)METHYL](4-FLUOROPHENYL)CARBAMOYL}PYRROLIDINE-1-CARBOXYLATE] |
|  |  |  | 2.8 | CC(C)(C)OC(=O)N1CC[C@@H](C(=O)N(Cc2ccc(Cl)nc2)c2ccc(F)cc2)C1 [Compound 255, tert-butyl (3R)-3-{[(6-chloropyridin-3-yl)methyl](4-fluorophenyl)carbamoyl}pyrrolidine-1-carboxylate] |
|  |  |  | 12.6 | CN1CCN(c2ccc(CN(C(=O)[C@H]3CCN(C(=O)OC(C)(C)C)C3)c3ccc(F)cc3)cn2)CC1 [Compound 256, tert-butyl (3S)-3-[(4-fluorophenyl){[6-(4-methylpiperazin-1-yl)pyridin-3-yl]methyl}carbamoyl]pyrrolidine-1-carboxylate] |
|  |  |  | 22.9 | CN1CCN(c2ccc(CN(C(=O)[C@@H]3CCN(C(=O)OC(C)(C)C)C3)c3ccc(F)cc3)cn2)CC1 [Compound 257, tert-butyl (3R)-3-[(4-fluorophenyl){[6-(4-methylpiperazin-1-yl)pyridin-3-yl]methyl}carbamoyl]pyrrolidine-1-carboxylate] |
|  |  |  | 57.7 | CN1CCN(c2ccc(CN(C(=O)[C@H]3CCNC3)c3ccc(F)cc3)cn2)CC1 [Compound 258, (3S)-N-(4-fluorophenyl)-N-{[6-(4-methylpiperazin-1-yl)pyridin-3-yl]methyl}pyrrolidine-3-carboxamide] |
|  |  |  | 59.5 | CN1CCN(c2ccc(CN(C(=O)[C@@H]3CCNC3)c3ccc(F)cc3)cn2)CC1 [Compound 259, (3R)-N-(4-fluorophenyl)-N-{[6-(4-methylpiperazin-1-yl)pyridin-3-yl]methyl}pyrrolidine-3-carboxamide] |
|  |  |  | 47.3 | CN1CCN(c2ccc(CN(C(=O)[C@H]3CCN(C(=O)C(C)(C)C)C3)c3ccc(F)cc3)cn2)CC1 [Compound 260, (3S)-1-(2,2-dimethylpropanoyl)-N-(4-fluorophenyl)-N-{[6-(4-methylpiperazin-1-yl)pyridin-3-yl]methyl}pyrrolidine-3-carboxamide] |
|  |  |  | 55.6 | CN1CCN(c2ccc(CN(C(=O)[C@@H]3CCN(C(=O)C(C)(C)C)C3)c3ccc(F)cc3)cn2)CC1 [Compound 261, (3R)-1-(2,2-dimethylpropanoyl)-N-(4-fluorophenyl)-N-{[6-(4-methylpiperazin-1-yl)pyridin-3-yl]methyl}pyrrolidine-3-carboxamide] |
